From ChEMBL document CHEMBL4507278 (2021)

What was measured:
[1] = target: NUAK family SNF1-like kinase 1 (Homo sapiens) (UniProt O60285); conditions: Compound concentration 1000.0 nM
[2] = target: T1, D(4) dopamine receptor (Homo sapiens) (UniProt P21917); conditions: Compound concentration 10.0 uM
T1 sequence (whole entry): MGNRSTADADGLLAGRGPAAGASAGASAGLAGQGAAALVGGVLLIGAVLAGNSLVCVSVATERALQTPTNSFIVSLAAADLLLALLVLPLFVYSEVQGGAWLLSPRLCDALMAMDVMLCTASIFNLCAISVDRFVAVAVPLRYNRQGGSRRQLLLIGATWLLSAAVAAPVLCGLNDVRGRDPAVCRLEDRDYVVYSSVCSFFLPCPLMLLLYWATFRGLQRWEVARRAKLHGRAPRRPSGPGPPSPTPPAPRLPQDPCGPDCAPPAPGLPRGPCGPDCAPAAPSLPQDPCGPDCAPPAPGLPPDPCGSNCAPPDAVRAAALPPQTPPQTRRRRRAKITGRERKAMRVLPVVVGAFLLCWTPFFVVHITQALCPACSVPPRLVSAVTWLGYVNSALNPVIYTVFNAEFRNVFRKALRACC

[3] = target: Receptor-type tyrosine-protein kinase FLT3 (Homo sapiens) (UniProt P36888); conditions: Compound concentration 1000.0 nM
[4] = target: Serine/threonine-protein kinase WNK1 (Homo sapiens) (UniProt Q9H4A3); conditions: Compound concentration 1000.0 nM
[5] = target: Phosphatidylinositol 5-phosphate 4-kinase type-2 beta (Homo sapiens) (UniProt P78356); conditions: Compound concentration 1000.0 nM
[6] = target: Dual specificity mitogen-activated protein kinase kinase 3 (Homo sapiens) (UniProt P46734); conditions: Compound concentration 1000.0 nM
[7] = target: Mitogen-activated protein kinase kinase kinase 12 (Homo sapiens) (UniProt Q12852); conditions: Compound concentration 1000.0 nM
[8] = target: Ribosomal protein S6 kinase alpha-3 (Homo sapiens) (UniProt P51812); conditions: Compound concentration 1000.0 nM
[9] = target: Mitogen-activated protein kinase kinase kinase kinase 1 (Homo sapiens) (UniProt Q92918); conditions: Compound concentration 1000.0 nM
[10] = target: Phosphatidylinositol 4,5-bisphosphate 3-kinase catalytic subunit beta isoform (Homo sapiens) (UniProt P42338); conditions: Compound concentration 1000.0 nM
[11] = test system: Epidermal growth factor receptor (Homo sapiens), P00533 [L861Q]; conditions: Compound concentration 1000.0 nM
[12] = target: Misshapen-like kinase 1 (Homo sapiens) (UniProt Q8N4C8); conditions: Compound concentration 1000.0 nM
[13] = target: Calcium/calmodulin-dependent protein kinase kinase 2 (Homo sapiens) (UniProt Q96RR4); conditions: Compound concentration 1000.0 nM
[14] = target: Dual specificity tyrosine-phosphorylation-regulated kinase 1A (Homo sapiens) (UniProt Q13627); conditions: Compound concentration 1000.0 nM
[15] = test system: Tyrosine-protein kinase ABL1 (Homo sapiens), P00519 [F317L]; conditions: Compound concentration 1000.0 nM
[16] = target: SNF-related serine/threonine-protein kinase (Homo sapiens) (UniProt Q9NRH2); conditions: Compound concentration 1000.0 nM
[17] = target: Serine/threonine-protein kinase D1 (Homo sapiens) (UniProt Q15139); conditions: Compound concentration 1000.0 nM
[18] = target: Cyclin-dependent kinase 11B (Homo sapiens) (UniProt P21127); conditions: Compound concentration 1000.0 nM
[19] = test system: Epidermal growth factor receptor (Homo sapiens), P00533 [UNDEFINED MUTATION]; conditions: Compound concentration 1000.0 nM
[20] = target: Inhibitor of nuclear factor kappa-B kinase subunit epsilon (Homo sapiens) (UniProt Q14164); conditions: Compound concentration 1000.0 nM
[21] = target: Mitogen-activated protein kinase 1 (Homo sapiens) (UniProt P28482); conditions: Compound concentration 1000.0 nM
[22] = target: Tyrosine-protein kinase ITK/TSK (Homo sapiens) (UniProt Q08881); conditions: Compound concentration 1000.0 nM
[23] = target: Phosphatidylinositol 4-phosphate 3-kinase C2 domain-containing subunit beta (Homo sapiens) (UniProt O00750); conditions: Compound concentration 1000.0 nM
[24] = target: Tyrosine-protein kinase FRK (Homo sapiens) (UniProt P42685); conditions: Compound concentration 1000.0 nM
[25] = target: 5'-AMP-activated protein kinase catalytic subunit alpha-1 (Homo sapiens) (UniProt Q13131); conditions: Compound concentration 1000.0 nM
[26] = target: Tyrosine-protein kinase Fgr (Homo sapiens) (UniProt P09769); conditions: Compound concentration 1000.0 nM
[27] = target: Mitogen-activated protein kinase 11 (Homo sapiens) (UniProt Q15759); conditions: Compound concentration 1000.0 nM
[28] = target: Serine/threonine-protein kinase DCLK2 (Homo sapiens) (UniProt Q8N568); conditions: Compound concentration 1000.0 nM
[29] = target: Proto-oncogene tyrosine-protein kinase Src (Homo sapiens) (UniProt P12931); conditions: Compound concentration 1000.0 nM
[30] = target: Serine/threonine-protein kinase Nek6 (Homo sapiens) (UniProt Q9HC98); conditions: Compound concentration 1000.0 nM
[31] = target: Mitogen-activated protein kinase kinase kinase kinase 5 (Homo sapiens) (UniProt Q9Y4K4); conditions: Compound concentration 1000.0 nM
[32] = test system: Receptor-type tyrosine-protein kinase FLT3 (Homo sapiens), P36888 [R834Q]; conditions: Compound concentration 1000.0 nM
[33] = target: Serine/threonine-protein kinase PLK1 (Homo sapiens) (UniProt P53350); conditions: Compound concentration 1000.0 nM
[34] = test system: Proto-oncogene tyrosine-protein kinase receptor Ret (Homo sapiens), P07949 [M918T]; conditions: Compound concentration 1000.0 nM
[35] = target: Phosphatidylinositol 4,5-bisphosphate 3-kinase catalytic subunit delta isoform (Homo sapiens) (UniProt O00329); conditions: Compound concentration 1000.0 nM
[36] = target: Serine/threonine-protein kinase 17B (Homo sapiens) (UniProt O94768); conditions: Compound concentration 1000.0 nM
[37] = target: Ephrin type-A receptor 2 (Homo sapiens) (UniProt P29317); conditions: Compound concentration 1000.0 nM
[38] = target: Myosin-IIIa (Homo sapiens) (UniProt Q8NEV4); conditions: Compound concentration 1000.0 nM
[39] = target: Myosin-IIIb (Homo sapiens) (UniProt Q8WXR4); conditions: Compound concentration 1000.0 nM

Chain of Phosphatidylinositol 4,5-bisphosphate 3-kinase catalytic subunit beta isoform (Homo sapiens) (P42338 whole entry, looked up, canonical isoform): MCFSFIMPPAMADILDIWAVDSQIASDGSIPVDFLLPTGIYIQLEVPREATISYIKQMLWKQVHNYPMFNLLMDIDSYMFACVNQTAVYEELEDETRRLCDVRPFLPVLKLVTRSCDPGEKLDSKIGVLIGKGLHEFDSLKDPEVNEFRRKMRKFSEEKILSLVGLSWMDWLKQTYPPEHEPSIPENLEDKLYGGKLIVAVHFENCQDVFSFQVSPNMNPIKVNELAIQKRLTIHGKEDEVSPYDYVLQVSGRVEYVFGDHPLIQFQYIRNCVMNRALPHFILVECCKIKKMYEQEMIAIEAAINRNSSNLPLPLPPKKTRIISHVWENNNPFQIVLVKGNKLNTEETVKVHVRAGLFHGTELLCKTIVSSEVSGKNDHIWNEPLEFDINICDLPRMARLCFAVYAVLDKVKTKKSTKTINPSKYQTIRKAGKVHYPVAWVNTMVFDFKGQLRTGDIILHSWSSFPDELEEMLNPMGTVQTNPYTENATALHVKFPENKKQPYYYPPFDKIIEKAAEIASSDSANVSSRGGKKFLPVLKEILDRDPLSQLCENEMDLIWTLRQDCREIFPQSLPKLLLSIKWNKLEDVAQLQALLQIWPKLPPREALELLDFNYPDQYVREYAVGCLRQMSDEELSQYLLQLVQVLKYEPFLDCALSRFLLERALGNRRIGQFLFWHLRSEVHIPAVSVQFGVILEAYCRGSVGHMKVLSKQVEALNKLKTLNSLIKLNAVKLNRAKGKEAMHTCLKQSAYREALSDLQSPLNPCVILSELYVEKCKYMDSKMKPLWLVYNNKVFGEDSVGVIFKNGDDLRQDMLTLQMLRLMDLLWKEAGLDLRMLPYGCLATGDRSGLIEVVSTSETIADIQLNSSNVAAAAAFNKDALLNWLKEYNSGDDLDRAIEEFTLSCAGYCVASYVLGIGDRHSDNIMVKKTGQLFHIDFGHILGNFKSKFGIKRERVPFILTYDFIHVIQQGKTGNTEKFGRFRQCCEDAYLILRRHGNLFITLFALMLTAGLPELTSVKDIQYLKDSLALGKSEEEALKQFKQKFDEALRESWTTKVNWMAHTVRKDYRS
Chain of Tyrosine-protein kinase FRK (Homo sapiens) (P42685 whole entry): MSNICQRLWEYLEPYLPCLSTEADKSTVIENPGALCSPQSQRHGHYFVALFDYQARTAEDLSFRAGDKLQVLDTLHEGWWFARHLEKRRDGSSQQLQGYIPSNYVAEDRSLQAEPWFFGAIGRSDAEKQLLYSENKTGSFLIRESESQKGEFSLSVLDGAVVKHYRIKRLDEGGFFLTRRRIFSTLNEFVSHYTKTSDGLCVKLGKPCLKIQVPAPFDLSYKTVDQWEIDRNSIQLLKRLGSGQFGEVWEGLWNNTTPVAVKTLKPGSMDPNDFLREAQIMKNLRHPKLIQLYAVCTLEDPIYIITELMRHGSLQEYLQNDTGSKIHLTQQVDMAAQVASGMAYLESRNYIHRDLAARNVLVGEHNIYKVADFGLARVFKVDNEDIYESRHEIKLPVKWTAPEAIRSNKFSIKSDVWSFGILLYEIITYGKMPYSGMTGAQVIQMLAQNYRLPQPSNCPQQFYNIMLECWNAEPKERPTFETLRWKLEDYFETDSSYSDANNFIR
Chain of Serine/threonine-protein kinase Nek6 (Homo sapiens) (Q9HC98 whole entry): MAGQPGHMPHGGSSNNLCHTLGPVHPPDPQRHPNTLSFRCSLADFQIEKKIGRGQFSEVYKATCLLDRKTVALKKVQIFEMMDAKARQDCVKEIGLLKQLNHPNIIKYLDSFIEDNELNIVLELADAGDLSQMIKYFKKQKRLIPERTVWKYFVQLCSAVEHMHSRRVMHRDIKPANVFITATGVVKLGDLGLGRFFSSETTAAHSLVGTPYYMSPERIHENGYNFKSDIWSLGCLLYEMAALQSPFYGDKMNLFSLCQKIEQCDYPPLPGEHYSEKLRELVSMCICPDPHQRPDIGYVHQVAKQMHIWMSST
Chain of Inhibitor of nuclear factor kappa-B kinase subunit epsilon (Homo sapiens) (Q14164 whole entry): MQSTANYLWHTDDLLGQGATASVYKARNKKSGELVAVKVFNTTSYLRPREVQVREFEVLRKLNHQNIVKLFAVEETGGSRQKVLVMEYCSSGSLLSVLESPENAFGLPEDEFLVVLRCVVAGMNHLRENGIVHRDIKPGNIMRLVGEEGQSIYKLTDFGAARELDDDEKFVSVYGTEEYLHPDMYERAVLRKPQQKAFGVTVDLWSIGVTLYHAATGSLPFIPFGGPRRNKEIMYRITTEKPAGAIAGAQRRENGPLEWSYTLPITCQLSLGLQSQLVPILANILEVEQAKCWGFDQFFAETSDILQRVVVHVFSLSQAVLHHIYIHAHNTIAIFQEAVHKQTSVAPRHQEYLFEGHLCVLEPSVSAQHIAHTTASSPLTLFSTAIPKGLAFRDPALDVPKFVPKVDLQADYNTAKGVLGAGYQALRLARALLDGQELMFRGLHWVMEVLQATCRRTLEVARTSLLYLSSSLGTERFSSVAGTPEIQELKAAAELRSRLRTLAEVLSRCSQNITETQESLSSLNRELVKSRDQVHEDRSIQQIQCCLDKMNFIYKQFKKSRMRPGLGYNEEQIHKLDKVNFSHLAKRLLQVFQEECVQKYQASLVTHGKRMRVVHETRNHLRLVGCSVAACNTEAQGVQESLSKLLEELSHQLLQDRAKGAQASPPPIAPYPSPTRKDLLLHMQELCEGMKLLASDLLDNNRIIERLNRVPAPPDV
Chain of Misshapen-like kinase 1 (Homo sapiens) (Q8N4C8 whole entry, looked up): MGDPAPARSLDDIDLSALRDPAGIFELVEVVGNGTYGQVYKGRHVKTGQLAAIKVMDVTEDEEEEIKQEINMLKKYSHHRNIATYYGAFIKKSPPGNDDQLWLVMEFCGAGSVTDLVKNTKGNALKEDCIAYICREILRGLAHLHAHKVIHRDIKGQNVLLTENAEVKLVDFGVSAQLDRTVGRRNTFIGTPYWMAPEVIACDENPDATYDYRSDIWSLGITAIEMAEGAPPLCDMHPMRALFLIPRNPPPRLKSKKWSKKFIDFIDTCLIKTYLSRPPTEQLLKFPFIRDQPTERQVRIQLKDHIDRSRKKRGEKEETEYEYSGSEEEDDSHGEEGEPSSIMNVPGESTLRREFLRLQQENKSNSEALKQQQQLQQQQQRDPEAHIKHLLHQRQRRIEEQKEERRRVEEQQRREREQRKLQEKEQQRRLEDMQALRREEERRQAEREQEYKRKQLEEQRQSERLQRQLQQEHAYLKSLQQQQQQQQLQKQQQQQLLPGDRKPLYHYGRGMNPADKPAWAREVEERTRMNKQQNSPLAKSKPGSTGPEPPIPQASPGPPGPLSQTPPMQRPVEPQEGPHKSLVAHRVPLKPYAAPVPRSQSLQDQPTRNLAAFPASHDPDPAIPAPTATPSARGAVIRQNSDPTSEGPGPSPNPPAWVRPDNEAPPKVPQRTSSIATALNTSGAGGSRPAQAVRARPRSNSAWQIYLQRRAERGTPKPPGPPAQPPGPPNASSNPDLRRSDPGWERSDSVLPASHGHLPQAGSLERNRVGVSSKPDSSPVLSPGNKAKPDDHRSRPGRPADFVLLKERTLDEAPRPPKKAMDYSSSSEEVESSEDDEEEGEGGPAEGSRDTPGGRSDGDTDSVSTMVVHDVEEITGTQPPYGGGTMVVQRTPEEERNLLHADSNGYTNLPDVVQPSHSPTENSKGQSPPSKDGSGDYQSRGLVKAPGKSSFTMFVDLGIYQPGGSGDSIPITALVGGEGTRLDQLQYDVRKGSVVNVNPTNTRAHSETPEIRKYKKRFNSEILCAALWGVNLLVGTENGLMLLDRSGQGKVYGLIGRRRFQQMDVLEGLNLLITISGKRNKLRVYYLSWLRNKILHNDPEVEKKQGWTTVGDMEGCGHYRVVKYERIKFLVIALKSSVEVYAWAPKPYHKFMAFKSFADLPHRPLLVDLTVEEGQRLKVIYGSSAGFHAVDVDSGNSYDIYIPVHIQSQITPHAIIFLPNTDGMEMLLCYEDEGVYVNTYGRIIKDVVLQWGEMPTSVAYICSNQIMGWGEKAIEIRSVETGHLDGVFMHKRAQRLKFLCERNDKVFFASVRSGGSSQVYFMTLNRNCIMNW
Chain of 5'-AMP-activated protein kinase catalytic subunit alpha-1 (Homo sapiens) (Q13131 whole entry, looked up): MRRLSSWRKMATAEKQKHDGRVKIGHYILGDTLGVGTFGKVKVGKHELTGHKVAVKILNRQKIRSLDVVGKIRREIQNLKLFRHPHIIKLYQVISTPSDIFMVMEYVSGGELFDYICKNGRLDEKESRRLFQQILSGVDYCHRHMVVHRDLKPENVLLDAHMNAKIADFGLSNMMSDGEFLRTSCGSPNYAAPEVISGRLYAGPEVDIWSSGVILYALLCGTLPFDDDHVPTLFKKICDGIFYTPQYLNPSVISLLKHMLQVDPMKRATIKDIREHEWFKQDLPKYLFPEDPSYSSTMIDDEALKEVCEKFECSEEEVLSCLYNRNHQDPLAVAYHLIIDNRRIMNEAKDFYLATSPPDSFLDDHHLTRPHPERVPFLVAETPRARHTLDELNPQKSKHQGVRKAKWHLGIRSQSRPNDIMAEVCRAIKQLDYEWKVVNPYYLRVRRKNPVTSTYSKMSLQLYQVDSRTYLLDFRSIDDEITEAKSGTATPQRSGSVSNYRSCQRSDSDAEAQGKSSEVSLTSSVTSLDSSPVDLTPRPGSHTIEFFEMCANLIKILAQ
Chain of Serine/threonine-protein kinase 17B (Homo sapiens) (O94768 whole entry): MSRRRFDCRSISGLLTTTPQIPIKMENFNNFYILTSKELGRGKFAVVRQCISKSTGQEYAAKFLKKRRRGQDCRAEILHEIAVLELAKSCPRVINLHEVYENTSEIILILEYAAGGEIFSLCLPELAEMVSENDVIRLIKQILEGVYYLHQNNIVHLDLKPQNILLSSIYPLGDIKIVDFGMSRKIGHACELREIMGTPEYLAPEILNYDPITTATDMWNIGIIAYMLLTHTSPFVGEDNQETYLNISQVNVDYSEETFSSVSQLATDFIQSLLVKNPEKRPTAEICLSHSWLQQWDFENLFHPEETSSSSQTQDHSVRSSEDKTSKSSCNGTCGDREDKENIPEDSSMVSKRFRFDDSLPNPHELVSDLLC

CS(=O)(=O)NCC[C@H](NC(=O)c1cncc2c1cnn2-c1ccc(F)cc1)c1ccnc(S(C)(=O)=O)c1 [BI 9307]
inactive: residual activity [1] 85% | inhibition [2] -5.61% | residual activity [3] 100% | residual activity [4] 100% | residual activity [5] 100% | residual activity [6] 100% | residual activity [7] 82% | residual activity [8] 98% | residual activity [9] 95% | residual activity [10] 93% | residual activity [11] 100% | residual activity [12] 100% | residual activity [13] 100% | residual activity [14] 100% | residual activity [15] 69% | residual activity [16] 100% | residual activity [17] 92% | residual activity [18] 100% | residual activity [19] 100% | residual activity [20] 78% | residual activity [21] 100% | residual activity [22] 99% | residual activity [23] 78% | residual activity [24] 100% | residual activity [25] 100% | residual activity [26] 100% | residual activity [27] 100% | residual activity [28] 100% | residual activity [29] 96% | residual activity [30] 100% | residual activity [31] 83% | residual activity [32] 79% | residual activity [33] 100% | residual activity [34] 100% | residual activity [35] 100% | residual activity [36] 100% | residual activity [37] 100% | residual activity [38] 93% | residual activity [39] 100%

CS(=O)(=O)c1cc(C2(NC(=O)c3cncc4c3cnn4-c3ccc(F)cc3)CC2)ccn1 [BI 639667]
inactive: residual activity [1] 91% | inhibition [2] -1.14% | residual activity [3] 93% | residual activity [4] 100% | residual activity [5] 100% | residual activity [6] 88% | residual activity [7] 100% | residual activity [8] 100% | residual activity [9] 89% | residual activity [10] 100% | residual activity [11] 100% | residual activity [12] 100% | residual activity [13] 75% | residual activity [14] 81% | residual activity [15] 68% | residual activity [16] 88% | residual activity [17] 100% | residual activity [18] 81% | residual activity [19] 98% | residual activity [20] 100% | residual activity [21] 94% | residual activity [22] 89% | residual activity [23] 84% | residual activity [24] 58% | residual activity [25] 99% | residual activity [26] 100% | residual activity [27] 100% | residual activity [28] 100% | residual activity [29] 100% | residual activity [30] 100% | residual activity [31] 98% | residual activity [32] 75% | residual activity [33] 90% | residual activity [34] 100% | residual activity [35] 100% | residual activity [36] 83% | residual activity [37] 100% | residual activity [38] 85% | residual activity [39] 100%
